# Reference: ChEMBL document CHEMBL1126797 (J Med Chem, 1993)
# Key:
# DNA topoisomerase 1 = target: T1, DNA topoisomerase 1 (Homo sapiens, UniProt P11387); test: Inhibition of Topoisomerase I by cleavage complex formation in human HL-60 cells; assay type: cell-based
# T1 sequence (P11387 whole entry): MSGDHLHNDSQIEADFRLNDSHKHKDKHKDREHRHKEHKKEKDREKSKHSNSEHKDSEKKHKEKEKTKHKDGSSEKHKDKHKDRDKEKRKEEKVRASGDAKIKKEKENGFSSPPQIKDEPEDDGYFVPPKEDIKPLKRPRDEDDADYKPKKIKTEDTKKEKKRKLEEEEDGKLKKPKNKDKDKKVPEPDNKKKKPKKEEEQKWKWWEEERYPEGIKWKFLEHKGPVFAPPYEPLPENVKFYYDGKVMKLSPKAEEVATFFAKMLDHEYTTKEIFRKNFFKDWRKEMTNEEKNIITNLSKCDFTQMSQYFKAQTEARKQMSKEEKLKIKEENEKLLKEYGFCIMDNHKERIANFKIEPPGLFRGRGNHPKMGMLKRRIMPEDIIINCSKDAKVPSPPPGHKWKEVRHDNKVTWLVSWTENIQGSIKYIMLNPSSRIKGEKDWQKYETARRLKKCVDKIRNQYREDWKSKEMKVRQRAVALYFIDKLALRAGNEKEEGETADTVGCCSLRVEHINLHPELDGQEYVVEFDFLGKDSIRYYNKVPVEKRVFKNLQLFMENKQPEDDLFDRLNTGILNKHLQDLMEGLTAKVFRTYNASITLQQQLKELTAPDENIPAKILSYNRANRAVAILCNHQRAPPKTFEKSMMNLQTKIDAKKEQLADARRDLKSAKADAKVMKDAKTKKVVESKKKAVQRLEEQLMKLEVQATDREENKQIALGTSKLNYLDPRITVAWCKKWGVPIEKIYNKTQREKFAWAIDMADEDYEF
# Mus musculus [1] = test: Relative survival in RAW117-H10 cells implanted mice in comparison to control at dose of 3 mg/kg; assay type: functional
# HT-29 [2] = test: Tumor volume in HT-29 cells after subcutaneous administration on days 16,20,23,27,30,34,37,41,44,48 at dose of 3 mg/kg; assay type: functional, Homo sapiens
# Mus musculus [3] = test: Relative survival in L1210 lymphoid leukemic mice after subcutaneous administration on days 1,4,6,8 at dose of 3 mg/kg; assay type: functional
# [4] = Number of metastases in K1735-M2 murine melanoma cells after subcutaneous administration on days1,4,6,8 at dose of 3 mg/kg; assay type: functional, Mus musculus
# Mus musculus [5] = test: Highest active dose in L1210 lymphoid leukemic mice at dose range of 0.6-5 mg/kg; assay type: functional
# Mus musculus [6] = test: Relative survival in RAW117-H10 cells implanted mice in comparison to control at dose of 2.5 mg/kg; assay type: functional
# HT-29 [7] = test: Tumor volume in HT-29 cells after subcutaneous administration on days 16,20,23,27,30,34,37,41,44,48 at dose of 2.5 mg/kg; assay type: functional, Homo sapiens
# Mus musculus [8] = species: Mus musculus; test: Number of L1210 lymphoid leukemic mice cured out of […]; assay type: functional
# Mus musculus [9] = species: Mus musculus; test: Toxic dose in L1210 lymphoid leukemic mice; assay type: toxicity, organism-based; conditions: in vivo
# Mus musculus [10] = test: Relative survival in L1210 lymphoid leukemic mice after subcutaneous administration on days 1,4,6,8 at dose of 4 mg/kg; assay type: functional
# Mus musculus [11] = species: Mus musculus; test: Percent median survival time of treated leukemic mice compared to control; assay type: functional
# L1210 [12] = test: Log of initial tumor cell population minus log of tumor cell population at end of treatment in L1210 lymphoid leukemic mice; assay type: functional, Mus musculus
# [13] = Number of metastases in K1735-M2 murine melanoma cells after subcutaneous administration at dose of 2.5 mg/kg; assay type: functional, Mus musculus
# [14] = Number of metastases in K1735-M2 murine melanoma after subcutaneous administration on days1,4,6,8 at dose of 4 mg/kg; assay type: functional, Mus musculus
# Mus musculus [15] = test: Relative survival in RAW117-H10 cells implanted mice in comparison to control at dose of 4 mg/kg; assay type: functional
# Mus musculus [16] = test: Relative survival as percent of control survival time in L1210 murine lymphoid leukemic mice after sc administration on days1,4,6,8 at dose of 4 mg/kg; assay type: functional; conditions: route subcutaneous
# HT-29 [17] = test: Tumor volume in HT-29 cells after subcutaneous administration on days 16,20,23,27,30,34,37,41,44,48 at dose of 4 mg/kg; assay type: functional, Homo sapiens
# Mus musculus [18] = test: Highest active dose in L1210 lymphoid leukemic mice at dose range of 2.37-8 mg/kg; assay type: functional
# L1210 [19] = test: Relative survival in L1210 murine lymphoid leukemia cells after subcutaneous administration on days1,4,6,8 at dose of 6 mg/kg; assay type: functional, Mus musculus
# L1210 [20] = test: Log of initial tumor cell population minus log of tumor cell population at end of treatment after i.v. drug dosing on hours 1 and 5; assay type: functional, Mus musculus
# [21] = Number of metastases in K1735-M2 murine melanoma cells after subcutaneous administration on days1,4,6,8 at dose of 6 mg/kg; assay type: functional, Mus musculus
# Mus musculus [22] = test: Highest active dose in L1210 lymphoid leukemic mice after i.v. drug dosing on hours 1 and 5 at dose range of 2.85-10 mg/kg; assay type: functional
# Mus musculus [23] = test: Relative survival in RAW117-H10 cells implanted mice in comparison to control at dose of 6 mg/kg; assay type: functional
# L1210 [24] = test: Toxic dose in L1210 murine lymphoid leukemia at dose of 20 mg/kg; NT means not toxic; assay type: toxicity, organism-based; design: dose 20 mg/kg; conditions: mouse, in vivo
# Mus musculus [25] = test: Median survival time of treated/control animals x 100 after i.v. drug dosing on hours 1 and 5; assay type: functional
# Mus musculus [26] = test: Number of L1210 mice cured after i.v. drug dosing on hours 1 and 5; assay type: functional
smiles,measurement,setting,value
CCC1(O)C(=O)OCc2c1cc1n(c2=O)Cc2cc3c([N+](=O)[O-])c4c(cc3nc2-1)OCO4 (racemic),IC50,DNA topoisomerase 1,220 nM
CC[C@]1(O)C(=O)OCc2c1cc1n(c2=O)Cc2cc3c(N)c4c(cc3nc2-1)OCO4,IC50,DNA topoisomerase 1,> 30000 nM
CCC1(O)C(=O)OCc2c1cc1n(c2=O)Cc2cc3c(OC)cccc3nc2-1 (racemic),IC50,DNA topoisomerase 1,1600 nM
CCC1(O)C(=O)OCc2c1cc1n(c2=O)Cc2cc3c(CN4CC4)c(O)ccc3nc2-1 (centres undefined),IC50,DNA topoisomerase 1,1100 nM
CC[C@@](O)(C(=O)O)c1cc2n(c(=O)c1CO)Cc1cc3ccccc3nc1-2,IC50,DNA topoisomerase 1,12000 nM
CC[C@@]1(O)C(=O)OCc2c1cc1n(c2=O)Cc2cc3cc4c(cc3nc2-1)OCO4,T/C,Mus musculus [1],1.33
same,Control,HT-29 [2],18%
same,T/C,Mus musculus [3],1.49
same,Control,[4],9%
O=C1OCc2c(cc3n(c2=O)Cc2cc4ccccc4nc2-3)C1(O)CCBr (racemic),IC50,DNA topoisomerase 1,3100 nM
CC[C@@]1(O)C(=O)OCc2c1cc1n(c2=O)Cc2cc3cc(Cl)ccc3nc2-1,IC50,DNA topoisomerase 1,140 nM
O=C1OCc2c(cc3n(c2=O)Cc2cc4ccccc4nc2-3)C1(O)CCO (racemic),IC50,DNA topoisomerase 1,9600 nM
CC[C@@]1(O)C(=O)OCc2c1cc1n(c2=O)Cc2cc3c(N)cccc3nc2-1 [9-AMINOCAMPTOTHECIN],Highest active dose,Mus musculus [5],0.6 mg/kg
same,T/C,Mus musculus [6],1.15
same,Control,HT-29 [7],25%
same,Cures,Mus musculus [8],3
same,Toxic dose,Mus musculus [9],10 mg/kg
same,IC50,DNA topoisomerase 1,110 nM
same,T/C,Mus musculus [10],2.44
same,T/C,Mus musculus [11],361%
same,KE,L1210 [12],5.97
same,Control,[13],73%
CC[C@@](O)(C(=O)[O-])c1cc2n(c(=O)c1CO)Cc1cc3cc4c(cc3nc1-2)OCO4.[Na+],Control,[14],15%
same,T/C,Mus musculus [15],1.36
same,T/C,Mus musculus [16],2.13
same,Control,HT-29 [17],40%
same,IC50,DNA topoisomerase 1,840 nM
CC[C@@]1(O)C(=O)OCc2c1cc1n(c2=O)Cc2cc3c(C)cccc3nc2-1,Highest active dose,Mus musculus [18],8 mg/kg
same,Cures,Mus musculus [8],4
same,Toxic dose,Mus musculus [9],12 mg/kg
same,IC50,DNA topoisomerase 1,38 nM
same,T/C,Mus musculus [11],274%
same,KE,L1210 [12],5.6
CCC(O)(C(=O)O)c1cc2n(c(=O)c1CO)Cc1cc3c(N)cccc3nc1-2 (racemic),IC50,DNA topoisomerase 1,13000 nM
CCC1(O)C(=O)OCc2c1cc1n(c2=O)Cc2cccnc2-1 (racemic),IC50,DNA topoisomerase 1,> 30000 nM
CC[C@@]1(O)C(=O)OCc2c1cc1n(c2=O)Cc2cc3cc(C#N)ccc3nc2-1,IC50,DNA topoisomerase 1,1900 nM
CCC1(O)C(=O)OCc2c1cc1n(c2=O)Cc2cc3cc(Br)ccc3nc2-1 (centres undefined),IC50,DNA topoisomerase 1,130 nM
CCC(O)(C(=O)[O-])c1cc2n(c(=O)c1CO)Cc1cc3cc4c(cc3nc1-2)OCO4.[Na+] (racemic),T/C,L1210 [19],2.13
same,KE,L1210 [20],4.79
same,Control,[21],4%
same,Highest active dose,Mus musculus [22],10 mg/kg
same,T/C,Mus musculus [23],1.32
same,Toxic dose,L1210 [24],Non-toxic
same,IC50,DNA topoisomerase 1,550 nM
same,T/C,Mus musculus [25],157%
same,Cures,Mus musculus [26],0
CCC1(O)C(=O)OCc2c1cc1n(c2=O)Cc2cc3c(N)c(Br)cc(Br)c3nc2-1 (racemic),IC50,DNA topoisomerase 1,> 30000 nM
CCC1(O)C(=O)OCc2c1cc1n(c2=O)Cc2cc3cc(F)ccc3nc2-1 (centres undefined),IC50,DNA topoisomerase 1,370 nM
CCC(O)(C(=O)O)c1cc2n(c(=O)c1CO)Cc1cc3ccccc3nc1-2 (racemic),IC50,DNA topoisomerase 1,2000 nM
